Laboratory results published in patent publication US20130045952A1, “ABA Receptor Agonists for Increased Plant Stress Resistance” (Van Andel Research Institute, priority 2011, published 2013).

Columns and labels:
[1] = test system: PYL4 / PP2Cs (HAB1, ABI1, ABI2); assay: In vitro PYL4-PP2C interaction; type: biochemical; conditions: purified proteins in vitro
Protocol: (§1) To determine the biochemical basis of these observations, we used purified proteins of PYR1 and PYL1 to PYL6 to measure their interactions with three PP2Cs, HAB1, ABI1, and ABI2, in vitro. […] In phosphatase assays, pyrabactin promoted PYR1, PYL1, PYL3, PYL5, and PYL6, but not PYL2 and PYL4, to inhibit all three PP2Cs.
(§2) Mutant proteins were expressed as H6GST-fusion proteins and purified by glutathione sepharose chromatography. Protein-protein interactions were determined by luminescence proximity AlphaScreen assay. Biotinylated PP2C proteins for the luminescence proximity assay were generated by in vivo biotinylation of avitag-PP2C fusion proteins. PP2C phosphatase activity was measured by phosphate release from a SnRK2.6 phosphoprotein.
(§3) Interactions between PYR/PYL and PP2Cs were assessed by luminescence-proximity AlphaScreen technology (Perkin Elmer). Briefly, biotinylated PP2Cs were attached to streptavidin-coated donor beads, and H6-tagged PYR/PYL receptors were attached to nickel-chelated acceptor beads. The donor and acceptor beads were brought into proximity by the interactions between PYR/PYLs and PP2Cs, which were measured with and without ligands. When excited by a laser beam of 680 nm, the donor beam emits singlet oxygen that activates thioxene derivatives in the acceptor beads, which releases photons of 520-620 nm as the binding signal. […]

[2] = target: T1, PYL6 / PP2Cs (HAB1, ABI1, ABI2) (Arabidopsis thaliana, UniProt Q8S8E3); assay: In vitro PYL6-PP2C interaction; type: biochemical; conditions: purified proteins in vitro
T1 construct: made in house; host or cells: not expressly stated for PYL6
T1 sequence (Q8S8E3 1-215): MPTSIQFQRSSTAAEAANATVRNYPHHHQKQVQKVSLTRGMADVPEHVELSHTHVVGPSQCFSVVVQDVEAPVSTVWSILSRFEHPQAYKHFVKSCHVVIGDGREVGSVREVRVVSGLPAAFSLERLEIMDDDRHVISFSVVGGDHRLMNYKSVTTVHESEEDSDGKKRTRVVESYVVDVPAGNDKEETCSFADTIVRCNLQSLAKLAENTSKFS
Protocol: as §1, §2, §3

[3] = test system: PP2Cs HAB1, ABI1, and ABI2; assay: Phosphatase assays, PYR/PYL receptor-dependent inhibition of PP2Cs; type: biochemical
Protocol: as §1, §2
PP2Cs and PYR/PYL proteins were pre-incubated at the indicated concentrations in 50 mM imidazole, pH 7.2, 5 mM MgCl2, 0.1% β-mercaptoethanol and 0.5 mg/ml BSA for 30 min at room temperature. Reactions were started by addition of 100 μM of a phosphopeptide corresponding to amino acids 170-180 of SnRK2.6 (HSQPK^pSTVGTP). This peptide is phosphorylated at a single residue corresponding to Ser175 in SnRK2.6, whose phosphorylation is required for SnRK2.6 kinase activity^32. Phosphate release from ^pS175 from the phosphopeptide was determined by colorimetric assay (BioVision).

[4] = test system: HAB1 PP2C / PYR/PYL receptors; conditions: yeast two-hybrid; cited from earlier work

With `O=S(=O)(NCc1ccccn1)c1ccc(Br)c2ccccc12` [Pyrabactin, pyrabactin] the “Promotion of PYL4 interaction with the three PP2Cs” value [1] was “promoted interaction”, the “Promotion of PYL6 interaction with the three PP2Cs” value [2] was “promoted interaction” and the “Effect on ABA-dependent inhibition of PP2Cs by PYL2” value ([3]; high concentrations of pyrabactin, in the presence of ABA) was “reversed”. For the same molecule, the “Promotion of PYL1 to inhibit all three PP2Cs” value ([3]; phosphatase assays, receptor PYL1) was “promoted”, the “Promotion of PYL2 to inhibit all three PP2Cs” value ([3]; phosphatase assays, receptor PYL2) was “not and did not promote” and the “Promotion of PYL3 to inhibit all three PP2Cs” value ([3]; phosphatase assays, receptor PYL3) was “promoted”. For the same molecule, the “Promotion of PYL4 to inhibit all three PP2Cs” value ([3]; phosphatase assays, receptor PYL4) was “not”, the “Promotion of PYL5 to inhibit all three PP2Cs” value ([3]; phosphatase assays, receptor PYL5) was “promoted” and the “Promotion of PYL6 to inhibit all three PP2Cs” value ([3]; phosphatase assays, receptor PYL6) was “promoted”. The “Promotion of PYR1 to inhibit all three PP2Cs” value ([3]; phosphatase assays, receptor PYR1) was “promoted”, the “Interaction of the HAB1 PP2C with PYL1” value [4] was “promoted” and the “Interaction of the HAB1 PP2C with PYL2” value [4] was “not”. For the same molecule, the “Interaction of the HAB1 PP2C with PYL3” value [4] was “promoted”, the “Interaction of the HAB1 PP2C with PYL4” value [4] was “not” and the “Interaction of the HAB1 PP2C with PYR1” value [4] was “promoted”.
